The source of these data is patent US20040038965A1, “Protease inhibitors” (priority 2003, published 2004).

The target of one experiment is T1, human Cathepsin K (Homo sapiens, UniProt P43235).
T1 sequence (P43235 115-329): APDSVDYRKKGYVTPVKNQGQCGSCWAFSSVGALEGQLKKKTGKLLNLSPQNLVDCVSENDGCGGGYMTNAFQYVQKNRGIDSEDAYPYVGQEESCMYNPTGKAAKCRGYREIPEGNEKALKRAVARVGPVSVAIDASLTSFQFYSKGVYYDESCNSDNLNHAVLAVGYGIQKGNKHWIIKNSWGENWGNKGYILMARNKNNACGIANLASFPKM
The experiment in a line: Cathepsin K inhibition, fluorogenic peptide substrate, progress curve method. The class given is biochemical. As to conditions: human recombinant enzyme, pH 5.5. The procedure:
Determination of Cathepsin K Proteolytic Catalytic Activity
All assays for cathepsin K were carried out with human recombinant enzyme. Standard assay conditions for the determination of kinetic constants used a fluorogenic peptide substrate, typically Cbz-Phe-Arg-AMC, and were determined in […] Na acetate at pH 5.5 containing 20 mM cysteine and 5 mM EDTA. Stock substrate solutions were prepared at concentrations of 10 or 20 mM in DMSO with 20 uM final substrate concentration in the assays. All assays contained 10% DMSO. […] All assays were conducted at ambient temperature. Product fluorescence (excitation at 360 nm; emission at 460 nm) was monitored with a Perceptive Biosystems Cytofluor II fluorescent plate reader. Product progress curves were generated over 20 to 30 minutes following formation of AMC product.
Potential inhibitors were evaluated using the progress curve method. Assays were carried out in the presence of variable concentrations of test compound. Reactions were initiated by addition of enzyme to buffered solutions of inhibitor and substrate. Data analysis was conducted according to one of two procedures depending on the appearance of the progress curves in the presence of inhibitors. For those-compounds whose progress curves were linear, apparent inhibition constants (Ki,app) were calculated according to equation 1 (Brandt et al., Biochemitsry, 1989, 28, 140): […]
v=VmA/[Ka(1+[…])+A] (1) where v is the velocity of the reaction with maximal velocity Vm, A is the concentration of substrate with Michaelis constant of Ka, and I is the concentration of inhibitor.
[AMC]=vsst+(v0−vss)[1−exp(−kobst)]]/kobs (2) where [AMC] is the concentration of product formed over time t, v0 is the initial reaction velocity and vss is the final steady state rate. Values for kobs were then analyzed as a linear function of inhibitor concentration to generate an apparent second order rate constant (kobs/inhibitor concentration or kobs/[I]) describing the time-dependent inhibition. A complete discussion of this kinetic treatment has been fully described (Morrison et al., Adv. Enzymol. Relat. Areas Mol. Biol., 1988, 61, 201).

The next experiment concerns the target human Cathepsin L (Homo sapiens, UniProt P07711). The experiment in a line: Cathepsin L inhibition, progress curve method. The class given is biochemical. The method, then: (§1) Potential inhibitors were evaluated using the progress curve method. Assays were carried out in the presence of variable concentrations of test compound. Reactions were initiated by addition of enzyme to buffered solutions of inhibitor and substrate. Data analysis was conducted according to one of two procedures depending on the appearance of the progress curves in the presence of inhibitors. For those-compounds whose progress curves were linear, apparent inhibition constants (Ki,app) were calculated according to equation 1 (Brandt et al., Biochemitsry, 1989, 28, 140):
(§2) v=VmA/[Ka(1+1/Ki, app)+A] (1)
(§3) where v is the velocity of the reaction with maximal velocity Vm, A is the concentration of substrate with Michaelis constant of Ka, and I is the concentration of inhibitor.

The target in a further experiment is human Cathepsin S (Homo sapiens, UniProt P25774). The experiment can be described thus: Cathepsin S inhibition, progress curve method. The class given is biochemical. The method, then: as §1, §2, §3
Chain of human Cathepsin S (P25774 115-331): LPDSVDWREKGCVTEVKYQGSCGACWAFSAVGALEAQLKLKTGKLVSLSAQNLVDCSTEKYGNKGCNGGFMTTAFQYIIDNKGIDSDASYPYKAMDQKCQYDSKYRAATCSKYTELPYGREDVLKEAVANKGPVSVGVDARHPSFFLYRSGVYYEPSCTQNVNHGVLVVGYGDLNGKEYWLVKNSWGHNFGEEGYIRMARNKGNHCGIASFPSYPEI
Another experiment concerns the target human Cathepsin B (Homo sapiens, UniProt P07858). The experiment in a line: Cathepsin B inhibition, progress curve method. The class given is biochemical. The procedure: as §1, §2, §3
In experiment [1] the test system is bone resorption. To be noted: rats on calcium deficient diets, serum calcium; cited from earlier work.
In experiment [2] the test system is bone resorption. To be noted: mouse bone organ culture; cited from earlier work.
Experiment [3] deals with PTH stimulated bone resorption. As to conditions: mouse calvariae; cited from earlier work.

Chain of human Cathepsin L (P07711 114-333): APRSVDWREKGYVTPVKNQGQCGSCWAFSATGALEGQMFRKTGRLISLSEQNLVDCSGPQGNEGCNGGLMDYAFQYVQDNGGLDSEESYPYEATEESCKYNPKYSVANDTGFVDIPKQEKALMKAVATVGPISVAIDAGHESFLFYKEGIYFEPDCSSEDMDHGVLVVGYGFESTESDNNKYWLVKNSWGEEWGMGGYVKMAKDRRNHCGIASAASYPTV

Consider `O=C(NC1(C(=O)N[C@H]2CCCN(S(=O)(=O)c3ccccn3)CC2=O)CCCCC1)c1cc2sccc2s1` (racemic) [Example 2, Thieno[3,2-b]thiophene-2-carboxylic Acid {1-[(+/−)-3-oxo-1-(pyridine-2-sulfonyl)-azepan-4-ylcarbamorl]-cyclohexyl}-amide], for which the Ki (usually a dissociation constant, usually derived from enzyme kinetics or from competition with a known ligand) stood at 0.58 nM on human Cathepsin K, 270 nM at human Cathepsin L, 632 nM at human Cathepsin S and 434 nM on human Cathepsin B.
For `O=C(NC1(C(=O)N[C@@H]2CCCN(S(=O)(=O)c3ccccn3)CC2=O)CCCCC1)c1cc2ccccc2o1` [Example 1 (R), Benzofuran-2-carboxylic acid {1-[(R)-3-oxo-1-(pyridine-2-sulfonyl)-azepan-4-ylcarbamoyl]-cyclohexyl}-amide], at human Cathepsin K, the Ki is more than 26 nM.
For the compound `O=C(NC1(C(=O)N[C@H]2CCCN(S(=O)(=O)c3ccccn3)CC2=O)CCCCC1)c1cc2ccccc2o1` [Example 1, Benzofaran-2-carboxylic Acid {1-[(S)-3-oxo-1-(pyridine-2-sulfonel)-azepan-4-ylcarbamoyl]-cyclohexyl}-amide], the Ki on human Cathepsin K was determined as 1.4 nM; on human Cathepsin L it was 239 nM; at human Cathepsin S, 390 nM; at human Cathepsin B, 926 nM.
With `C[C@@H]1CC[C@H](NC(=O)C2(NC(=O)c3cc4sccc4s3)CCCCC2)C(=O)CN1S(=O)(=O)c1ccccn1` [Example 5, Thieno[3,2-b]thiophene-2-carboxylic Acid {1-[(4S,7R)-7-methyl-3-oxo-1-(pyridine-2-sulfonyl)-azepan-4-ylcarbamoyl]-cyclohexyl}-amide], the Ki on human Cathepsin K turned out to be 0.3 nM; at human Cathepsin L it was 69 nM; on human Cathepsin S, 175 nM; on human Cathepsin B, 173 nM.
Take `CC(C)C[C@H](NC(=O)[C@H]1O[C@@H]1C(=O)O)C(=O)NCCCCN=C(N)N` [Example E-64, E-64]: the “prevention of bone resorption in vivo” value in the experiment on bone resorption [1] was “effective at preventing bone resorption in vivo”.
As for `C[C@H](NC(=O)[C@H](Cc1ccccc1)NC(=O)OCc1ccccc1)C(=O)C=[N+]=[N-]` [Z-Phe-Ala-CHN2], the “prevention of bone resorption” value with bone resorption [2] was “prevent bone resorption”.
On to `CC(=O)N[C@@H](CC(C)C)C(=O)N[C@@H](CC(C)C)C(=O)N[C@H](C=O)CCCNC(=N)N` [leupeptin], for which, in the experiment on bone resorption [2], the “prevention of bone resorption” value is reported as “prevent bone resorption”. Also, the “prevention of bone resorption in vivo” value in the experiment on bone resorption [1] was “effective at preventing bone resorption in vivo”.
Consider cystatin, for which the “inhibition of PTH stimulated bone resorption” value in experiment [3] is reported as “inhibits PTH stimulated bone resorption”.
